Key:
[1] = Peptide binding to phospholipid bilayers by CD, SOPS/SOPC (1:9) vesicles; details: single site binding fit, 42 (peptide 1) or 52 (peptide 2) lipids per peptide
Experimental: The binding affinity of peptides to phospholipid bilayers was measured using CD spectra of the peptide in the presence of varying lipid vesicle concentrations. Peptides show little structure from CD spectra in water. Upon addition of lipid vesicles, the ellipiticity at 214 nm increased as a consequence of helix formation due to interactions between the peptide and lipid surface. Small unilamellar vesicles (SUV) of SOPC/SOPS were prepared by sonicating lipid large vesicles in 10 mM phosphate buffer, pH 7. CD spectra were taken before and after the addition of aliquots of vesicle to 2 mL peptide solution in 10 mM phosphate buffer, pH 7.
The dissociation constant Kd was determined from equation (1) for single site binding:
[P](R−1)−c/n−Kd+c/(nR)=0 (1)
where [P] and c are peptide and lipid molar concentrations, respectively, n is the number of lipids per peptide binding site. R is the fraction of peptide bound, which can be calculated from equation (2): […]
To get better understanding of the binding mechanism of the peptides to lipid membranes, the dissociation constants (Kd) of peptide 1 and peptide 2 to small unilamellar lipid vesicles (SUV) were measured. Since binding to DPC micelle drives peptide 1 and peptide 2 from random coil conformation to helical conformation, the binding equilibrium can be monitored by CD spectroscopy. […]

micF-lux fusion = test: Stress-induced response assay, induction of micF-lux fusion; assay type: cell-based; details: for induction of micF-lux: Group II peptides; for micF gene fusion response: Table 4, regulatory gene Rob
Experimental: Stress-induced response and growth inhibition assays were carried out on samples of four of the β-peptide and compared to known polycationic peptides.
Polymyxin B was tested both rich, LB, medium and defined, M9, medium. The other natural peptides were tested in LB medium.
The β-peptides were tested in M9 medium. * In LB medium (data from Oh et al. Biochem. Biophys. Acta. 2000,1463: 43-54)
However, similar to the magainins, no induction of the micF-lux fusion was observed. Also, the minimum inhibitory concentrations (MIC's) were determined to be higher than those reported in the published manuscript.
Samples of these β-peptides 1 and 2 were evaluated in the stress-induced response assays.
The biolumenescence data result from test carried out according to U.S. Pat. No. 5,683,868, Highly Sensitive Method For Detecting Environmental Insults, issued Nov. 4, 1997 to LaRossa et al., the entire contents of the disclosure of are hereby incorporated by reference, The tests described in this patent permit antibacterial properties of peptides or any other materials to be assessed. […] Along these lines, FIG. 5 illustrates a relationship between relative light units and minutes of exposure of bacteria to the various materials in the legend. P×B represents polymyxin, a known antibacterial material. In the graph, a decrease in RULs corresponds to a decrease in bacteria. […]

[2] = Hemolysis assay, 50% lysis of RBC's; assay type: cell-based, human; details: human, 0.25% suspension of human erythrocytes (RBCs)
Experimental: The biological activities of these peptides were measured using human erythrocytes and E. coli as models for mammalian and bacterial cells, respectively. Hemolysis was monitored in 10 mM Tris, 150 mM NaCl, pH 7.0, while the bacterial assay was conducted in minimal media M9 (Table 1); both of these solutions are sufficiently transparent to allow CD and ultracentrifugation measurements (supplementary material). Under the assay conditions, the peptides gave CD spectra similar to those in Tris buffer, with the exception of H-(β^3-HLeu-β^3-HLys-β^3-HLeu)n-OH, n=5 and 6.
∇in M9 medium (data from Hamuro et al., ref. 5) # In M9 medium.+Hemolysis experiments were performed by incubating a 0.25% suspension of human RBc's in 10 mM Tris buffer containing […] at pH 7.0 with varying amounts of peptide. The hemolytic dose required to lyse 50% of the RBC's is reported as the HD50.
Hemolysis experiments were carried out by incubating 0.25% suspension of human erythrocytes (RBC's) with peptides of different concentrations in 150 mM sodium choloride, 10 mM Tris buffer, pH 7.0. The sample was prepared by combining 400 μL of the RBC suspension and […] of the peptide solution. After incubated the sample at 37— C. for 1 hour, the sample was centrifuged at 14,000 rpm for 5 min, and the OD414 of the supernatant was measured. Mellitin (50 μM) was used to get 100% hemolysis. The hemolytic IC50 was obtained by plotting hemolysis percentage vis. peptide concentration, and the concentration required for 50% hemolysis was determined from the smooth curve-fitted graph.
The activity and selectivity of peptide 1 and peptide 2 were examined by antibacterial assay and hemolysis experiments. E. Coli and human erythrotytes (RBC) were used as models for bacterial cell and mammalian cell, respectively. The peptide concentration required for 50% bacterial growth suppression (IC50), and peptide concentration required for 50% RBC lysis (HD50) are listed in Table 3. […] The antibacterial activities of peptide 1 and peptide 2 are about the same except peptide 2 has slightly lower IC50. Similar trend has been observed in the previous study, that longer peptide tends to have higher activity. However, the difference in IC50 is much smaller for this series of peptide than the previously studied ones. Antibacterial peptide with good selectivity is usually represented by its low hemolysis ability. […] The HD50 is 670 μM for peptide 1 and 240 μM for peptide 2, which gives a selectivity of 111 for peptide 1 and 60 for peptide 2.

Row | Compound | Kd [1] | induction of micF-lux (micF-lux fusion) | micF gene fusion response (micF-lux fusion) | HC50 at 1 h ([2]; pH 7) | HC50 at 1 h [2]
1 | CC(C)[C@@H](CC(N)=O)NC(=O)C[C@H](CCCCN)NC(=O)C[C@H](C)NC(=O)C[C@@H](NC(=O)C[C@H](CCCCN)NC(=O)C[C@H](C)NC(=O)C[C@@H](NC(=O)C[C@H](CCCCN)NC(=O)C[C@H](C)NC(=O)C[C@@H](NC(=O)C[C@H](CCCCN)NC(=O)C[C@H](C)N)C(C)C)C(C)C)C(C)C [Peptide 1] | 1400 nM | induction | yes | 670 µM | 
2 | CC(C)[C@@H](CC(N)=O)NC(=O)C[C@H](CCCCN)NC(=O)C[C@H](C)NC(=O)C[C@@H](NC(=O)C[C@H](CCCCN)NC(=O)C[C@H](C)NC(=O)C[C@@H](NC(=O)C[C@H](CCCCN)NC(=O)C[C@H](C)NC(=O)C[C@@H](NC(=O)C[C@H](CCCCN)NC(=O)C[C@H](C)NC(=O)C[C@@H](NC(=O)C[C@H](CCCCN)NC(=O)C[C@H](C)N)C(C)C)C(C)C)C(C)C)C(C)C [Peptide 2] | 300 nM | induction | yes |  | 240 µM
